Measurements published in patent US5260479A, “Inhibitors of farnesyl protein transferase” (Merck & Co., Inc., priority 1991, dated 1993).
pIC50: −log10 of the molar value.

Biological target: T1, Farnesyl-protein transferase (FTase) (Bos taurus, UniProt P29702+P49355)
T1 construct: Farnesyl-protein transferase (FTase) from bovine brain was chromatographed; from tissue; host or cells: bovine brain
Assay: In Vitro Inhibition of Ras Farnesyl Transferase (inhibition of Ras-CVLS farnesylation)
Format: biochemical
Details: partially purified bovine brain FTase; Ras-CVLS 3.5 μM, 0.25 μM [3H]FPP
Experimental: Farnesyl-protein transferase (FTase) from bovine brain was chromatographed on DEAE-Sephacel (Pharmacia, 0-0.8M NaCl gradient elution), N-octyl agarose (Sigma, 0-0.6M NaCl gradient elution), and a mono Q HPLC column (Pharmacia, 0-0.3M NaCl gradient). Ras-CVLS at 3.5 μM, 0.25 μM [^3 H]FPP, and the indicated compounds were incubated with this partially purified enzyme preparation. The FTase inhibitory data presented below is a measurement of the ability of the test compound to inhibit Ras farnesylation in vitro.

Question: With `CCCCCCCCCCCCCC/C(C(=O)O)=C(/C)C(=O)O` [A] as the compound, how does the pIC50 read?
Answer: The pIC50 was 5.11.

Question: How did the pIC50 turn out when `C=C(C(=O)O)C(CCCCCCCCCCCCCC)C(=O)O` (centres unmarked) [B] was run?
Answer: The pIC50 was 5.77.
